Reference: patent US20240308960A1 (Sumitomo Pharma Co., Ltd., priority 2021, published 2024)

What follows are compounds tested against T1, Human orexin receptor type 2 (Homo sapiens, UniProt O43614) (assay: Test Example 1: agonist activity for orexin receptor type 2 (aequorin luminescence, intracellular calcium mobilization)). Conditions: compound 10 μm; CHO cells transiently expressing human orexin receptor type 2 and apoaequorin; relative percentage of luminescence for the luminescence (100%) of Orexin A (100 μM).
T1 sequence (O43614 1-444): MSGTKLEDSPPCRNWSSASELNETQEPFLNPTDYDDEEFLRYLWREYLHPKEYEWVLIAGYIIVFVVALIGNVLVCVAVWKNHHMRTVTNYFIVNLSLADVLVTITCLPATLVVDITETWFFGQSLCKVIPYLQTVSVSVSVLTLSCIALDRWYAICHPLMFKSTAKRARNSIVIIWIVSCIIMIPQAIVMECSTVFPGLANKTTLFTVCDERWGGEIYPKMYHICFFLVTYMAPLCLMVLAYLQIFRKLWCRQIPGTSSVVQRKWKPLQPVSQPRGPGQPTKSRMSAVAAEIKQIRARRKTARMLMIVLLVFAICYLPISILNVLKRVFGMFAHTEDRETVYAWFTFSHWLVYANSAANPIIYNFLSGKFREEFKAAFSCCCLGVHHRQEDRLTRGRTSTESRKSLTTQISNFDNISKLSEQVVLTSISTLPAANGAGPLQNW

| Compound | Agonist Activity (%) |
| --- | --- |
| Cc1ccc(C2CCN(C(=O)Nc3c(F)cccc3N3CCN(C(C)C)CC3)CC2C)cc1 (racemic) [Example 26, Rac-N-{2-fluoro-6-[4-(propan-2-yl)piperazin-1-yl]phenyl}-3-methyl-4-(4-methylphenyl)piperidine-1-carboxamide] | 63 |
| Cc1ccc(C2CCN(C(=O)Nc3ccccc3N3CCN(C(C)C)C(C)C3)CC2)cc1 (racemic) [Example 28, Rac-4-(4-methylphenyl)-N-{2-[3-methyl-4-(propan-2-yl)piperazin-1-yl]phenyl}piperidine-1-carboxamide] | 104 |
| Cc1ccc(C2CCN(C(=O)Nc3ccccc3N3CCN(C(C)C)CC3C)CC2)cc1 (racemic) [Example 30, Rac-4-(4-methylphenyl)-N-{2-[2-methyl-4-(propan-2-yl)piperazin-1-yl]phenyl}piperidine-1-carboxamide] | 36 |
| CC(C)N1CCN(c2cccc(Cl)c2NC(=O)N2CCC(C)(c3noc([C@@H]4C[C@@H]4C)n3)CC2)CC1 (racemic) [Example 104, Rac-N-{2-chloro-6-[4-(propan-2-yl)piperazin-1-yl]phenyl}-4-methyl-4-{5-[(1R,2S)-2-methylcyclopropyl]-1,2,4-oxadiazol-3-yl}piperidine-1-carboxamide] | 180 |
| CC(C)N1CCC(Oc2cccc(Cl)c2NC(=O)N2CCC(C)(c3noc(C4CC4)n3)CC2)C1 (racemic) [Example 110, Rac-N-(2-chloro-6-{[1-(propan-2-yl)pyrrolidin-3-yl]oxy}phenyl)-4-(5-cyclopropyl-1,2,4-oxadiazol-3-yl)-4-methylpiperidine-1-carboxamide] | 148 |
| CC(C)[C@H]1CO[C@H](c2cccc(Cl)c2NC(=O)N2CCC(C)(c3noc(C4CC4)n3)CC2)CN1 (racemic) [Example 167, Rac-N-{2-chloro-6-[(2R,5S)-5-(propan-2-yl)morpholin-2-yl]phenyl}-4-(5-cyclopropyl-1,2,4-oxadiazol-13-yl)-4-methylpiperidine-1-carboxamide] | 183 |
| CC(C)[C@@H]1CO[C@H](c2cccc(Cl)c2NC(=O)N2CCC(C)(c3noc(C4CC4)n3)CC2)CN1 (racemic) [Example 168, Rac-N-{2-chloro-6-[(2R,5R)-5-(propan-2-yl)morpholin-2-yl]phenyl}-4-(5-cyclopropyl-1,2,4-oxadiazol-3-yl)-4-methylpiperidine-1-carboxamide] | 184 |
| CCN1CCN(c2ccccc2NC(=O)N2CCC(c3ccc(OC)cc3)CC2)CC1 [Example 1, N-[2-(4-Ethylpiperazin-1-yl)phenyl]-4-(4-methoxyphenyl)piperidine-1-carboxamide] | 77 |
| CCN1CCN(c2ccccc2NC(=O)N2CCC(c3nc4ccccc4o3)CC2)CC1 [Example 2, 4-(1,3-benzoxazol-2-yl)-N-[2-(4-ethylpiperazin-1-yl)phenyl]piperidine-1-carboxamide] | 35 |
| CCN1CCN(c2ccccc2NC(=O)N2CCC(c3cc(OC)cc(OC)c3)CC2)CC1 [Example 3, 4-(3,5-dimethoxyphenyl)-N-[2-(4-ethylpiperazin-1-yl)phenyl]piperidine-1-carboxamide] | 27 |
| CCN1CCN(c2ccccc2NC(=O)N2CCC(C)(c3ccccc3)CC2)CC1.Cl [Example 4, N-[2-(4-ethylpiperazin-1-yl)phenyl]-4-methyl-4-phenylpiperidine-1-carboxamide hydrochloride] | 125 |
| CC(C)N1CCN(c2ccccc2NC(=O)N2CCC(C)(c3ccccc3)CC2)CC1 [Example 5, 4-methyl-4-phenyl-N-{2-[4-(propan-2-yl)piperazin-1-yl]phenyl}piperidine-1-carboxamide] | 156 |
| CC(C)N1CCN(c2ccccc2NC(=O)N2CCC(C#N)(c3ccccc3)CC2)CC1.Cl [Example 6, 4-cyano-4-phenyl-N-{2-[4-(propan-2-yl)piperazin-1-yl]phenyl}piperidine-1-carboxamide] | 151 |
| CC(C)N1CCN(c2ccccc2NC(=O)N2CCC(c3ccccc3)CC2)CC1 [Example 7, 4-phenyl-N-{2-[4-(propan-2-yl)piperazin-1-yl]phenyl}piperidine-1-carboxamide] | 154 |
| COc1cccc(N2CCN(C(C)C)CC2)c1NC(=O)N1CCC(c2ccc(C)cc2)CC1 [Example 8, N-{2-methoxy-6-[4-(propan-2-yl)piperazin-1-yl]phenyl}-4-(4-methylphenyl)piperidine-1-carboxamide] | 145 |
| Cc1ccc(C2CCN(C(=O)Nc3c(F)cccc3N3CCN(C(C)C)CC3)CC2)cc1 [Example 9, N-{2-fluoro-6-[4-(propan-2-yl)piperazin-1-yl]phenyl}-4-(4-methylphenyl)piperidine-1-carboxamide] | 132 |
| Cc1ccc(C2CCN(C(=O)Nc3ccc(F)cc3N3CCN(C(C)C)CC3)CC2)cc1 [Example 10, N-{4-fluoro-2-[4-(propan-2-yl)piperazin-1-yl]phenyl}-4-(4-methylphenyl)piperidine-1-carboxamide] | 34 |
| Cc1ccc(C2CCN(C(=O)Nc3cccc(F)c3N3CCN(C(C)C)CC3)CC2)cc1 [Example 11, N-{3-fluoro-2-[4-(propan-2-yl)piperazin-1-yl]phenyl}-4-(4-methylphenyl)piperidine-1-carboxamide] | 142 |
| CC(C)N1CCN(c2ccccc2NC(=O)N2CCC(C)(c3nc(-c4ccccc4)no3)CC2)CC1 [Example 12, 4-methyl-4-(3-phenyl-1,2,4-oxadiazol-5-yl)-N-{2-[4-(propan-2-yl)piperazin-1-yl]phenyl}piperidine-1-carboxamide] | 123 |
| CC(C)N1CCN(c2ccccc2NC(=O)N2CCC(C)(c3nc(-c4cccnc4)no3)CC2)CC1 [Example 13, 4-methyl-N-{2-[4-(propan-2-yl)piperazin-1-yl]phenyl}-4-[3-(pyridin-3-yl)-1,2,4-oxadiazol-5-yl]piperidine-1-carboxamide] | 99 |
| Cc1ccc(C23CCN(C(=O)Nc4ccccc4N4CCN(C(C)C)CC4)CC2C3)cc1 (stereo not drawn) [Example 14, 6-(4-methylphenyl)-N-{2-[4-(propan-2-yl)piperazin-1-yl]phenyl}-3-azabicyclo[4.1.0]heptane-3-carboxamide] | 126 |
| COc1cccc(N2CCN(C(C)C)CC2)c1NC(=O)N1CCC(c2ccc(C(F)(F)F)cc2)CC1 [Example 15, N-{2-methoxy-6-[4-(propan-2-yl)piperazin-1-yl]phenyl}-4-[4-(trifluoromethyl)phenyl]piperidine-1-carboxamide] | 101 |
| COc1cccc(N2CCN(C(C)C)CC2)c1NC(=O)N1CCC(c2ccc(OC(F)(F)F)cc2)CC1 [Example 16, N-{2-methoxy-6-[4-(propan-2-yl)piperazin-1-yl]phenyl}-4-[4-(trifluoromethoxy)phenyl]piperidine-1-carboxamide] | 82 |
| Cc1ccc(C2CCN(C(=O)Nc3c(C)cccc3N3CCN(C(C)C)CC3)CC2)cc1 [Example 17, 4-(4-methylphenyl)-N-{2-methyl-6-[4-(propan-2-yl)piperazin-1-yl]phenyl}piperidine-1-carboxamide] | 133 |
